Measurements from ChEMBL document CHEMBL5230153, “Bitopic Sigma 1 Receptor Modulators to Shed Light on Molecular Mechanisms Underpinning Ligand Binding and Receptor Oligomerization” (J Med Chem, 2021).
The source made the active and inactive calls. The calls are words filed in the database; no cut-off is given here.

Columns and labels:
[1] = target: Sigma non-opioid intracellular receptor 1 (Cavia porcellus, UniProt Q60492); assay: Displacement of [3H](+)-pentazocine from sigma 1 receptor in guinea pig brain membranes measured after 120 mins by scintillation counting method; assay type: cell membranes, Membrane
PC-12 [2] = assay: Neuroprotective activity in rat PC-12 cells assessed as increase in NGF-mediated neurite outgrowth by measuring differentiated cells at 5 to 250 nM incubated for 72 hrs by bright-field microscopic analysis; assay type: functional, cell-based; conditions: dose 5-250 nM
PC-12 [3] = assay: Neuroprotective activity in rat PC-12 cells assessed as increase in NGF-mediated neurite outgrowth by measuring differentiated cells at 5 to 250 nM in presence of 1 uM NE-100 incubated for 72 hrs by bright-field microscopic analysis; assay type: functional, cell-based; conditions: dose 5-250 nM
PC-12 [4] = assay: Cytotoxicity against rat PC-12 cells assessed as cell death at 0.25 uM after 72 hrs incubation by LDH-based cytotoxic assay; assay type: toxicity; conditions: pc-12, 72 h
[5] = target: Sigma non-opioid intracellular receptor 1 (Cavia porcellus) (UniProt Q60492); assay: Displacement of [3H](+)-pentazocine from sigma 1 receptor in guinea pig brain membranes measured after 120 mins by scintillation counting method relative to control; assay type: cell membranes; conditions: Membrane
Chain of Sigma non-opioid intracellular receptor 1 (Cavia porcellus) (Q60492 whole entry): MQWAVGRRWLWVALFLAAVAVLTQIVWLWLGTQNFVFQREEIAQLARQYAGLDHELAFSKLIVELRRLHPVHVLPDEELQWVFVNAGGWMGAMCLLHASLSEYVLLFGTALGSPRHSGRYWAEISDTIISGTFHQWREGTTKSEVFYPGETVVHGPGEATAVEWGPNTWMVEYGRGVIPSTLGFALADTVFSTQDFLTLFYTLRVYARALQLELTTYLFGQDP

Chain of Sigma non-opioid intracellular receptor 1 (Q60492 whole entry): as above

Ki [1] [nM] | inhibition [5] [%] | Compound | Activity (PC-12 [2]) | Activity (PC-12 [3]) | Activity (PC-12 [4])
1300 |  | C[C@H](CCN1CCC(NC(=O)CCCCCC(=O)NC2CCN(CC[C@@H](C)c3ccc(-c4ccccc4)cc3)CC2)CC1)c1ccc(-c2ccccc2)cc1 |  |  | 
622 |  | C[C@H](CCN1CCC(NC(=O)CCCC(=O)NC2CCN(CC[C@@H](C)c3ccc(-c4ccccc4)cc3)CC2)CC1)c1ccc(-c2ccccc2)cc1 |  |  | 
134 |  | C[C@H](CCN1CCC(NC(=O)c2ccccc2C(=O)NC2CCN(CC[C@@H](C)c3ccc(-c4ccccc4)cc3)CC2)CC1)c1ccc(-c2ccccc2)cc1 |  |  | 
2.6 |  | C[C@H](CCN1CCC(NC(=O)COCCOCC(=O)NC2CCN(CC[C@@H](C)c3ccc(-c4ccccc4)cc3)CC2)CC1)c1ccc(-c2ccccc2)cc1 | Active | inactive | Non-Toxic
11 |  | CC(=O)NC1CCN(CC[C@@H](C)c2ccc(-c3ccccc3)cc2)CC1 | Active | inactive | Non-Toxic
1600 |  | C[C@H](CCN1CCC(NC(=O)COCCOCCOCCOCCNC(=O)c2ccccc2)CC1)c1ccc(-c2ccccc2)cc1 |  |  | 
 |  | C[C@H](CCN1CCCCC1)c1ccc(-c2ccccc2)cc1 | Active | inactive | Non-Toxic
 | 0 | C[C@H](CCN1CCC(NC(=O)COCC(=O)NC2CCN(CC[C@@H](C)c3ccc(-c4ccccc4)cc3)CC2)CC1)c1ccc(-c2ccccc2)cc1 |  |  | 
200 |  | C[C@H](CCN1CCC(NC(=O)CC(=O)NC2CCN(CC[C@@H](C)c3ccc(-c4ccccc4)cc3)CC2)CC1)c1ccc(-c2ccccc2)cc1 | Active | inactive | Non-Toxic
799 |  | C[C@H](CCN1CCC(NC(=O)CCOCCOCCOCCOCCOCCOCCOCCOCCOCCC(=O)NC2CCN(CC[C@@H](C)c3ccc(-c4ccccc4)cc3)CC2)CC1)c1ccc(-c2ccccc2)cc1 |  |  | 
